Drawing on US7897621B2, “2-trifluoromethylnicotinamide derivatives as HDL-cholesterol raising agents” (Hoffmann-La Roche Inc., priority 2008, dated 2011), this text covers EC50 and IC50 for 11 compounds.

One assay deals with THP-1 cells. Put plainly: Cholesterol efflux assay. To be noted: Homo sapiens; THP-1 cells differentiated to macrophages, [3H]cholesterol loaded, efflux induced by 10 μg/ml Apolipoprotein AI, 6 hrs; percent stimulation over DMSO. Type of assay: cell-based. As to the method: The ability of compounds of the invention to stimulate cholesterol efflux is determined in replicate cultures of THP-1 cells in 96-well microplates. Cells are plated at an initial density of 150,000 cells/well and differentiated to macrophages with the addition of PMA (100 ng/ml) for 72 hrs in 10% fetal bovine serum, 3 μI/L of b-mercaptoethanol, RPMI-1640 medium. Cells are washed once with RPMI-1640 and loaded with RPMI-1640 medium containing 2% FCS, 50 μg/ml acetylated LDL, and 10 μCi/ml [^3H]cholesterol for 48 hours at 37° C. After loading the cells are washed once with RPMI-1640 and incubated with the compound of interest from DMSO solutions for an additional 24 hrs in RPMI-1640 medium containing 1 mg/ml fatty acid free-bovine serum albumin (BSA). Upon incubation cells are washed once, and cholesterol efflux is induced by the addition of 10 μg/ml Apolipoprotein Al in RPMI-1640 containing 1 mg/ml BSA and in the presence of the compound for an additional 6 hrs. Following incubation radioactivity is determined in the supernatants and cholesterol efflux is expressed as the percent stimulation over replicate cultures treated only with DMSO. Sigmoidal curves were fitted using the XLfit3 program (ID Business Solutions Ltd. UK) and EC50 values were determined.

A further assay addresses cannabinoid CB1 receptor (Homo sapiens, UniProt P21554). Put plainly: CB1-receptor binding assay. To be noted: determined as described in WO 2006/106054, page 36. How it is done: The affinity of the compounds of formula I of the present invention towards cannabinoid CB1 receptors was determined as described in WO 2006/106054, page 36.

cannabinoid CB1 receptor, sequence (P21554 whole entry): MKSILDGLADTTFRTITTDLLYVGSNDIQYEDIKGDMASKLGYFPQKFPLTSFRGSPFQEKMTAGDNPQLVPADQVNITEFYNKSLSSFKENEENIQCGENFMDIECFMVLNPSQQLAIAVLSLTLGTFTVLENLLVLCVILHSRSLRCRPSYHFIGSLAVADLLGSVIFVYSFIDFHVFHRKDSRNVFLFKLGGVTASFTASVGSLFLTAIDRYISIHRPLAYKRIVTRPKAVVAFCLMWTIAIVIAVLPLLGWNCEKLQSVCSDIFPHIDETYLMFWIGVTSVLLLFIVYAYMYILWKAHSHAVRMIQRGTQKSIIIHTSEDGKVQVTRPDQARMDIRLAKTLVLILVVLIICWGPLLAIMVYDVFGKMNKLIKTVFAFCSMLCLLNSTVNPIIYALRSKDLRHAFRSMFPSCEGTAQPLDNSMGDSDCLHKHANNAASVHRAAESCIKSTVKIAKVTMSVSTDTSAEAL

The EC50 is the concentration needed to bring the measured effect to its halfway point. By IC50 is commonly meant the concentration that gives 50% inhibition. Low readings indicate greater potency in that assay, high ones weaker potency in that assay. Consider `CC(O)(CNC(=O)c1cc(-c2ccc(Cl)cc2)c(OCC(F)(F)F)nc1C(F)(F)F)C1CC1` (stereo not shown) [Example 1, 5-(4-chloro-phenyl)-N-(2-cyclopropyl-2-hydroxy-propyl)-6-(2,2,2-trifluoro-ethoxy)-2-trifluoromethyl-nicotinamide], for which, in the assay with THP-1 cells, the EC50 was found to be 450 nM. The compound also returned a concentration for half-maximal inhibition (IC50) at cannabinoid CB1 receptor of around 10000 nM.

In the case of `CC(O)(CNC(=O)c1cc(-c2ccc(Cl)c(Cl)c2)c(OCC(F)(F)F)nc1C(F)(F)F)C1CC1` (stereo not shown) [Example 2, N-(2-cyclopropyl-2-hydroxy-propyl)-5-(3,4-dichloro-phenyl)-6-(2,2,2-trifluoro-ethoxy)-2-trifluoromethyl-nicotinamide], the EC50 in the assay on THP-1 cells is 1070 nM. The compound also gave an IC50 at cannabinoid CB1 receptor above 10000 nM.

As to `C[C@](O)(CNC(=O)c1cc(-c2ccc(Cl)c(Cl)c2)c(OCC(F)(F)F)nc1C(F)(F)F)C1CC1` [Example 2A, N-((R)-2-cyclopropyl-2-hydroxy-propyl)-5-(3,4-dichloro-phenyl)-6-(2,2,2-trifluoro-ethoxy)-2-trifluoromethyl-nicotinamide], in the assay with THP-1 cells, the EC50 was 1630 nM. For the same compound, on cannabinoid CB1 receptor, the IC50 is above 10000 nM.

Consider `C[C@@](O)(CNC(=O)c1cc(-c2ccc(Cl)c(Cl)c2)c(OCC(F)(F)F)nc1C(F)(F)F)C1CC1` [Example 2B, N-((S)-2-cyclopropyl-2-hydroxy-propyl)-5-(3,4-dichloro-phenyl)-6-(2,2,2-trifluoro-ethoxy)-2-trifluoromethyl-nicotinamide], for which the EC50 with THP-1 cells was found to be 1400 nM. The same compound came in with an IC50 on cannabinoid CB1 receptor above 10000 nM.

As to `CC(O)(CNC(=O)c1cc(-c2cccc(Cl)c2)c(OCC(F)(F)F)nc1C(F)(F)F)C1CC1` (stereo not shown) [Example 3, 5-(3-chloro-phenyl)-N-(2-cyclopropyl-2-hydroxy-propyl)-6-(2,2,2-trifluoro-ethoxy)-2-trifluoromethyl-nicotinamide], in the assay with THP-1 cells, the EC50 is 480 nM. For the same compound, at cannabinoid CB1 receptor, the IC50 was above 10000 nM.

Regarding `O=C(N[C@@H]1CCCC[C@H]1O)c1cc(-c2ccc(Cl)cc2)c(OCC(F)(F)F)nc1C(F)(F)F` [Example 4, 5-(4-chloro-phenyl)-N-((1R,2R)-2-hydroxy-cyclohexyl)-6-(2,2,2-trifluoro-ethoxy)-2-trifluoromethyl-nicotinamide], in the assay with THP-1 cells, the EC50 is 390 nM. At cannabinoid CB1 receptor, the IC50 was 5600 nM.

`O=C(N[C@@H]1CCCC[C@@H]1O)c1cc(-c2ccc(Cl)cc2)c(OCC(F)(F)F)nc1C(F)(F)F` [Example 4B, 5-(4-chloro-phenyl)-N-((1R,2S)-2-hydroxy-cyclohexyl)-6-(2,2,2-trifluoro-ethoxy)-2-trifluoromethyl-nicotinamide]: the EC50 in the assay with THP-1 cells was determined as 1200 nM. This compound also showed an IC50 at cannabinoid CB1 receptor above 10000 nM.

Take `O=C(N[C@H]1CCCC[C@H]1O)c1cc(-c2ccc(Cl)cc2)c(OCC(F)(F)F)nc1C(F)(F)F` [Example 4C, 5-(4-chloro-phenyl)-N-((1S,2R)-2-hydroxy-cyclohexyl)-6-(2,2,2-trifluoro-ethoxy)-2-trifluoromethyl-nicotinamide]: the EC50 in the assay on THP-1 cells came out at 2500 nM. Moreover, the IC50 at cannabinoid CB1 receptor is above 10000 nM.

For the compound `CC(C)CC(CO)NC(=O)c1cc(-c2ccc(NS(C)(=O)=O)cc2)c(OCc2ccccn2)nc1C(F)(F)F` (stereo not shown) [Example 5, N-(1-hydroxymethyl-3-methyl-butyl)-5-(4-methanesulfonylamino-phenyl)-6-(pyridin-2-ylmethoxy)-2-trifluoromethyl-nicotinamide], the EC50 in the assay with THP-1 cells is 890 nM. Further, at cannabinoid CB1 receptor, the IC50 was around 10000 nM.

Regarding `CS(=O)(=O)Nc1ccc(-c2cc(C(=O)N[C@@H]3CCCC[C@H]3O)c(C(F)(F)F)nc2OCC(F)(F)F)cc1` [Example 6, N-((1R,2R)-2-hydroxy-cyclohexyl)-5-(4-methanesulfonylamino-phenyl)-6-(2,2,2-trifluoro-ethoxy)-2-trifluoromethyl-nicotinamide], the EC50 with THP-1 cells stood at 560 nM. Further, the concentration for half-maximal inhibition (IC50) on cannabinoid CB1 receptor is above 10000 nM.

For `O=C(N[C@@H]1CCCC[C@H]1O)c1cc(-c2ccc(Cl)c(Cl)c2)c(OCc2ccccn2)nc1C(F)(F)F` [Example 7, 5-(3,4-dichloro-phenyl)-N-((1R,2R)-2-hydroxy-cyclohexyl)-6-(pyridin-2-ylmethoxy)-2-trifluoromethyl-nicotinamide], the EC50 in the assay on THP-1 cells turned out to be 640 nM. Besides, at cannabinoid CB1 receptor, the IC50 was above 10000 nM.
